From patent US10889553B2, “Asymmetric triazole benzamide derivatives and the compositions and methods of treatment regarding the same” (NysnoBio Ireland DAC, priority 2017, dated 2021)
Where two headings read alike, the source gives them in different places.

What was measured:
[1] = molecular target: CYP2C9 (Homo sapiens, UniProt P11712); assay: CYP inhibition assay; assay type: in vitro ADME; settings: read-out: % Inhibition at 30 μM CYP 2C9
[2] = test system: CDK 4/6 or other kinases; assay: Kinase panel assay (whole panel); assay type: biochemical; settings: 10 μM, in words
Excerpt: (§1) Compound 42 was also screened in a kinase panel assay.

[3] = test system: subcutaneous HCT-116 (colon cancer) xenograft; assay: In vivo cancer xenograft assay; settings: 5 mg/kg daily IP, up to 26 days, HCT-116 xenograft in nude mice (FIG. 1)
Procedure: Each mouse was inoculated subcutaneously at the flank region with either HCT-116 cells (1.0×106) in 0.1 ml of 1×PBS mixed with Matrigel (1:1) for tumor development and xenotransplantation.
The vehicle with or without drug is administered to the mouse by intraperitoneal injection. The formulation with respective drug is as follows: • 10% —DMA: N,N-Dimethyl acetamide • 15% —Solutol HS 15: Macrogol 15 Hydroxy Stearate, Polyethylene glycol-15-hydroxystrerate; and 75%-20% aqueous HP-β-CD: Hydroxypropyl-beta-cyclodextrin
Before grouping and treatment, all animals were weighed and the tumor volumes were confirmed (approx. 120-150 mm^3) using electronic caliper. Since the tumor volume can affect the effectiveness of any given treatment, mice were assigned into groups using randomized block design as following: First, the experimental animals were divided into homogeneous blocks based on their tumor volume. […]
After tumor cells were inoculated, the animals were checked daily for morbidity and mortality. […] Death and observed clinical signs were recorded. Tumor volumes were measured every three days in two dimensions using an electronic caliper, and the volume data were expressed in mm^3 using the formula: V=0.5 a×b2 where a and b are the long and short diameters of the tumor, respectively. Tumor volume average is then recorded for each day for groups 1-4 until day 26.

[4] = molecular target: GSK3B (GSK3 beta) (Homo sapiens, UniProt P49841); assay: Kinase panel assay; assay type: biochemical
Excerpt: as §1

[5] = molecular target: PAK4 (Homo sapiens, UniProt O96013); assay: Kinase panel assay; assay type: biochemical
Excerpt: as §1

[6] = molecular target: PLK1 (Homo sapiens, UniProt P53350); assay: Kinase panel assay; assay type: biochemical
Excerpt: as §1

[7] = molecular target: ABL1 (Homo sapiens, UniProt P00519); assay: Kinase panel assay; assay type: biochemical
Excerpt: as §1

[8] = molecular target: MAPK1 (ERK2) (Homo sapiens, UniProt P28482); assay: Kinase panel assay; assay type: biochemical
Excerpt: as §1

[9] = molecular target: CDK4/CyclinD3 (Homo sapiens, UniProt P11802); assay: Kinase panel assay; assay type: biochemical
Excerpt: as §1

[10] = molecular target: AURKA (Aurora A) (Homo sapiens, UniProt O14965); assay: Kinase panel assay; assay type: biochemical
Excerpt: as §1

[11] = molecular target: PIM1 (Homo sapiens, UniProt P11309); assay: Kinase panel assay; assay type: biochemical
Excerpt: as §1

[12] = molecular target: CYP2C19 (Homo sapiens, UniProt P33261); assay: CYP inhibition assay; assay type: in vitro ADME; settings: read-out: % Inhibition at 30 μM CYP 2C19
[13] = Oral bioavailability (PO) and pharmacokinetics assay; assay type: in vivo, mice; settings: mouse
Procedure: The pharmacokinetics and oral bioavailability of various compounds was evaluated following IV or PO administration to fasted male Sprague-Dawley […] (N=3/route/dose). […] For IV dosing, each compound was formulated in 10% DMA/15% Solutol/75% HPβ-CD (20%) as a 1 mg/mL solution for IV (3 mg/kg), for IP (5 mg/kg) and for PO (10 mg/kg) administrations.
Blood samples (0.250 mL) were collected into EDTA tubes then processed to generate plasma samples. Blood samples were collected at pre-dose, 0.083, 0.25, 0.5, 1, 2, 4, 8 and 24 hours post-dose administration. Plasma concentrations of each compound were determined using LC-MS/MS with a lower limit of quantitation of 1.0 ng/mL. The pharmacokinetic parameters were determined by non-compartmental methods using WinNonlin.
The pharmacokinetic parameters of each compound were determined by non-compartmental analysis (Model 201 for IV administration and Model 200 for PO administration) using WinNonlin Version 6.4 (Pharsight, Mountain View, Calif.). The area under the curve from the time of dosing to the last measurable concentration, AUC(0-t), was calculated by the linear trapezoidal rule. The area under the concentration-time curve extrapolated to infinity, AUC(0-∞), was calculated as follows: AUC(0-∞)=AUC(0-t)+Clast/k
Where Clast is the last measurable concentration and k is the first order rate constant associated with the terminal elimination phase, estimated by linear regression of log concentration versus time. The half-life (T1/2) of the terminal elimination phase was estimated based on the following equation: T1/2=0.693/k
K was determined based on at least three timepoints with R^2≥0.9. Additional parameters were calculated as follows: CL=Dose/AUC(0-∞)
Where CL is the clearance of the compound of the disclosure in L/hr/kg, Dose is the administered dose in mg/kg. Mean residence time (MRT) was calculated as follows: MRT=AUMC(0-∞)/AUC(0-∞)
Where area under the first moment curve extrapolated to infinity (AUMC0-∞)) was calculated as follows: AUMC(0-∞)=AUMClast+tlast*[…]+Clast/k^2
The steady state volume of distribution (Vss) was calculated as follows: Vss=CL×MRT.
The oral bioavailability based on AUC(0-t) was calculated as follows: F(%)=AUCPO/AUCIV×DoseIV/DosePO×100. For IV administration, the initial concentration, Co is reported and is an extrapolated value. For PO administration, the maximum concentration, Cmax is report and is an observed value.

[14] = male, Sprague-Dawley, plasma, IP (5 mg/kg)
[15] = male, Sprague-Dawley, plasma, IV bolus (3 mg/kg)
[16] = male, Sprague-Dawley, plasma, PO (10 mg/kg)

Sequence of PIM1 (P11309 whole entry, species assumed): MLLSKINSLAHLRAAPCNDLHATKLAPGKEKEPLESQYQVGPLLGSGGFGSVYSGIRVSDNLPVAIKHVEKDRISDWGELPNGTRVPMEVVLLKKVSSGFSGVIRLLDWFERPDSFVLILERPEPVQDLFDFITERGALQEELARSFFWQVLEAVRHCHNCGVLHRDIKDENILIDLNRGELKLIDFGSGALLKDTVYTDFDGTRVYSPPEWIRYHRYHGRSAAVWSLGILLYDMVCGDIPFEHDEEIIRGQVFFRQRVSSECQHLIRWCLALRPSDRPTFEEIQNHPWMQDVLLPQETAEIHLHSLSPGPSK
Sequence of AURKA (Aurora A) (O14965 whole entry, species assumed): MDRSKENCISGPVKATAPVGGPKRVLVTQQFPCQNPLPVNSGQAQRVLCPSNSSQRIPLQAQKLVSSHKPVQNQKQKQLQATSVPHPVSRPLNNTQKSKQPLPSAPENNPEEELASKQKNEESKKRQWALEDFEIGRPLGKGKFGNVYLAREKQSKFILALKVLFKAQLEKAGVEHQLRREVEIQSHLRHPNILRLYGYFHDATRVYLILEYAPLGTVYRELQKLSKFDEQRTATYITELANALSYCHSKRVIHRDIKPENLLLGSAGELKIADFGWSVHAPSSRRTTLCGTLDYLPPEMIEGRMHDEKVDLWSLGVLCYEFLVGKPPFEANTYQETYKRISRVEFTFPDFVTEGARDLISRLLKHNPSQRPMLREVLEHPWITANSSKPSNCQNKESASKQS
Sequence of ABL1 (P00519 whole entry, species assumed): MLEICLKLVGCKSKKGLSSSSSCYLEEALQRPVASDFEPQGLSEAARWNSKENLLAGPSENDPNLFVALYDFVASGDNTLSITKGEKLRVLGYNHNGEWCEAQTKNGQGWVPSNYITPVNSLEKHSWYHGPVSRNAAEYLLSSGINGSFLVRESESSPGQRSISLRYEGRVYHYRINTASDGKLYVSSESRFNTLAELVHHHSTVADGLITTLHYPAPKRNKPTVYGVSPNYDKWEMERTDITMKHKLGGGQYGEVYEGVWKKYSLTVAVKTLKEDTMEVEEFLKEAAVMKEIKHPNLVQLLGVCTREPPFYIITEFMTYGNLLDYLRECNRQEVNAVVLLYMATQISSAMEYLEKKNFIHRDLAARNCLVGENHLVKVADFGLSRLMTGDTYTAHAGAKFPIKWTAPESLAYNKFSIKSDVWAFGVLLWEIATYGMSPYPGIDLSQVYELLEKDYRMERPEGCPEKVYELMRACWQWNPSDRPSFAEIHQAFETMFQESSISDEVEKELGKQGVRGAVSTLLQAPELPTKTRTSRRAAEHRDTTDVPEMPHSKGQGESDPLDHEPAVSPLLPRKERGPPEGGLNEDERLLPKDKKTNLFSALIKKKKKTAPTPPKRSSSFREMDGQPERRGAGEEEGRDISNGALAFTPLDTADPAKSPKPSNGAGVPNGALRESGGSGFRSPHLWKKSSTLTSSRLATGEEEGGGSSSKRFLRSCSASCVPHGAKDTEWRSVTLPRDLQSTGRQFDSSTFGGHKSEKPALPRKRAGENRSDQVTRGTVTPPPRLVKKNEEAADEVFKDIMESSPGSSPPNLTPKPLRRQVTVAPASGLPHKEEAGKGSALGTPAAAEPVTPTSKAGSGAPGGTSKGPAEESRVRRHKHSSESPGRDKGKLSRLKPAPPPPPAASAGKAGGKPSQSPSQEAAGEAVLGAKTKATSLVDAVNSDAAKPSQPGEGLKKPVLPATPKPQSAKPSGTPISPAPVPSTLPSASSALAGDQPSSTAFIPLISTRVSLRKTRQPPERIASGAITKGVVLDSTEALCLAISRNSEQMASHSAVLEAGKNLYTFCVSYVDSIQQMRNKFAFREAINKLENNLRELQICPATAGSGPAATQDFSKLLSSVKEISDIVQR
Sequence of GSK3B (GSK3 beta) (P49841 whole entry, species assumed): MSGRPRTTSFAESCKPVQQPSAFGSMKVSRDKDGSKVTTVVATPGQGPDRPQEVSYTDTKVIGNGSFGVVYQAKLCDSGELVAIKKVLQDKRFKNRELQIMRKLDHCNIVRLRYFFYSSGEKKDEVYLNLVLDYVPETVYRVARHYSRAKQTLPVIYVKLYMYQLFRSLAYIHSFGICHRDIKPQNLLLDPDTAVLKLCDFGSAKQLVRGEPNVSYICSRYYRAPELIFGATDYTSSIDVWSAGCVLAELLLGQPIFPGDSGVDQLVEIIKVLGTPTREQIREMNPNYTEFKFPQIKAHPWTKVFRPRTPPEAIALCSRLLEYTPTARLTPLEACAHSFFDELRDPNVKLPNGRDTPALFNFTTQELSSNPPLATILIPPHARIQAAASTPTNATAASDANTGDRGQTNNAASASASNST
Sequence of CYP2C9 (P11712 whole entry): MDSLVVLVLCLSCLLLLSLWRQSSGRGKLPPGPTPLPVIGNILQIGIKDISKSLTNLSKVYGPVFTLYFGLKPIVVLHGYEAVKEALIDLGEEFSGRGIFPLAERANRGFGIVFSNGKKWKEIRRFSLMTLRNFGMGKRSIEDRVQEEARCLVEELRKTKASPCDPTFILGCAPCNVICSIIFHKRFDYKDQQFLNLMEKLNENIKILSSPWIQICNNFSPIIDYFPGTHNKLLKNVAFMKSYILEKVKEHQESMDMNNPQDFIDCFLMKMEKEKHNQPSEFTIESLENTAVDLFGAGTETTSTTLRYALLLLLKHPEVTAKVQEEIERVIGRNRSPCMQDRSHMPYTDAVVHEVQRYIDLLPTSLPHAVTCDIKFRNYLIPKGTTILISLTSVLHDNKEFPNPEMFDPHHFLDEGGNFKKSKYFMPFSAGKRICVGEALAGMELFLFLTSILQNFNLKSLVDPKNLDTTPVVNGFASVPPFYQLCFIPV
Sequence of MAPK1 (ERK2) (P28482 whole entry, species assumed): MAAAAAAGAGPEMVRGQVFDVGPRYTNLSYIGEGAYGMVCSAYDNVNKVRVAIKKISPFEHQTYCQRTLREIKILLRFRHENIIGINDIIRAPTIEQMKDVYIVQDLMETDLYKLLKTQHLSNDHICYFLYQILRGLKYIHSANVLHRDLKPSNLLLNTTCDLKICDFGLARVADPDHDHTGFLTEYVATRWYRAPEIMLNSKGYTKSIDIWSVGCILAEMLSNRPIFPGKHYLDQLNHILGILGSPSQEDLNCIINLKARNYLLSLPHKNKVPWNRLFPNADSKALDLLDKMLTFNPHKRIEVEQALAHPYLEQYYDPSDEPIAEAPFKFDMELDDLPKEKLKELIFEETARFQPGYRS
Sequence of CYP2C19 (P33261 whole entry): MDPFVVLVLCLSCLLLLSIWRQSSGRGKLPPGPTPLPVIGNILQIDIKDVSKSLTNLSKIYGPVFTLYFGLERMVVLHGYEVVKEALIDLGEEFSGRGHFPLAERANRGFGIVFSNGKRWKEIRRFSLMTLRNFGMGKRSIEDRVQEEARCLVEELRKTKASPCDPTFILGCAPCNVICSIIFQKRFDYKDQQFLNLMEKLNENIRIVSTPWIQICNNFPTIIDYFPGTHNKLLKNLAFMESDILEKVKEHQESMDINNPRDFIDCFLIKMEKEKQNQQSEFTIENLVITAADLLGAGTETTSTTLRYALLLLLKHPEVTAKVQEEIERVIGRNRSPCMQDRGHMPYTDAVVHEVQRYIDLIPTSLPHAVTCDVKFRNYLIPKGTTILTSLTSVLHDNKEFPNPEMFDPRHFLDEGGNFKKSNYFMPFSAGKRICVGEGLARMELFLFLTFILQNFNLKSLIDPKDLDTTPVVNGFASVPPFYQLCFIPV
Sequence of PLK1 (P53350 whole entry, species assumed): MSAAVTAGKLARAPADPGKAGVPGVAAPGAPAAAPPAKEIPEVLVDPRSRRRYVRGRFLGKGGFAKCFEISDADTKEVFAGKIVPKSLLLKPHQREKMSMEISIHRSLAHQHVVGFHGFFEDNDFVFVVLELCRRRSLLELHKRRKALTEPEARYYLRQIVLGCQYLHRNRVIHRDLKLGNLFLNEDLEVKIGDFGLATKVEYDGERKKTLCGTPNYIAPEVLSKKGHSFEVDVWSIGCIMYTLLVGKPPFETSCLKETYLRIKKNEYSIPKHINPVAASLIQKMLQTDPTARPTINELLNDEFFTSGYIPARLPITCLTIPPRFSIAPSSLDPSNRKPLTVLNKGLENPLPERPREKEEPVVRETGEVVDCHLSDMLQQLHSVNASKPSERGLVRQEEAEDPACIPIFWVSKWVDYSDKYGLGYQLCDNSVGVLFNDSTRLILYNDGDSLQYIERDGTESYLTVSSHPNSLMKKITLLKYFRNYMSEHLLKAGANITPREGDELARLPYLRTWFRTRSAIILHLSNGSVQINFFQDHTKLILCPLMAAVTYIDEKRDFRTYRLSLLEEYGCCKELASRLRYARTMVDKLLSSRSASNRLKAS
Sequence of PAK4 (O96013 whole entry, species assumed): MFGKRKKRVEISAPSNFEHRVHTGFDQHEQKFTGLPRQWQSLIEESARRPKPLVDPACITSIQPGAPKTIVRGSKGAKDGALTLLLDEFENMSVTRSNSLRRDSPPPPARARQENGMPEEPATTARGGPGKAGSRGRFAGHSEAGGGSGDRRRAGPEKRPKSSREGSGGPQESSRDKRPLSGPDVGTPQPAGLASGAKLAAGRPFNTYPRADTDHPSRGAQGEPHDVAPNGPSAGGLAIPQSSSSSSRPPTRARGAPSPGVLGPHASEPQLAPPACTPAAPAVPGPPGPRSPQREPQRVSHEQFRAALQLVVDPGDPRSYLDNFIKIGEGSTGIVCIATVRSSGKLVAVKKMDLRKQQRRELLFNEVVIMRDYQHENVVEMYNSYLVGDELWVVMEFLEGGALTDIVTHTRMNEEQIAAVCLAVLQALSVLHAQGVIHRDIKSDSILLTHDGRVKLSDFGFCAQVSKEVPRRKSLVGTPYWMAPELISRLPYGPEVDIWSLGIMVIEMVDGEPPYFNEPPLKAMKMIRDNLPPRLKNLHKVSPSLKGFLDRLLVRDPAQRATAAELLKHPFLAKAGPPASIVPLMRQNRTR

Cc1ccccc1C(=O)Nc1nc(NC(=O)c2ccccc2C)n(-c2ccc(OC(F)(F)F)cc2)n1 [Compound 42, N,N′-(1-(4-(trifluoromethoxy)phenyl)-1H-1,2,4-triazole-3,5-diyl)bis(2-methylbenzamide)]
inhibition at 30 μM [1]: 11.8%
inhibition of CDK 4/6 or other kinases [2]: does not inhibit
reduced tumor size [3]: greater than 50%
inhibition at 10 µM [4]: 12%
inhibition at 10 µM [5]: 5%
inhibition at 10 µM [6]: 4%
inhibition at 10 µM [7]: 8%
inhibition at 10 µM [8]: 4%
inhibition at 10 µM [9]: 3%
inhibition at 10 µM [10]: 4%
inhibition at 10 µM [11]: 5%
inhibition at 30 μM [12]: 60.5%
bioavailability ([13]; male, Sprague-Dawley, plasma, intraperitoneal, 5 mg/kg, IP (5 mg/kg) vs IV, read-out: F (%)): 50.3%
half-life ([13]; male, Sprague-Dawley, plasma, ip, 5 mg/kg, IP (5 mg/kg)): 47 h
half-life ([13]; male, Sprague-Dawley, plasma, iv, 3 mg/kg): 16 h
half-life ([13]; male, Sprague-Dawley, plasma, iv, 3 mg/kg, IV bolus (3 mg/kg)): 16.4 h
Vd ([13]; male, Sprague-Dawley, plasma, iv, 3 mg/kg, IV bolus (3 mg/kg), read-out: Vss): 1.3 L/kg
bioavailability ([13]; male, Sprague-Dawley, plasma, oral, 10 mg/kg, PO (10 mg/kg) vs IV, read-out: F (%) oral bioavailability): 21%
half-life ([13]; male, Sprague-Dawley, plasma, po, 10 mg/kg, PO (10 mg/kg)): 25 h
AUC(0-t) [13, 14]: 21500 ng·h/mL
Cmax [13, 14]: 1400 ng/mL
Tmax [13, 14]: 1.33 h
AUC(0-t) [13, 15]: 25700 ng·h/mL
clearance [13, 15]: 1.49 mL/min/kg
C0 ([13]; male, Sprague-Dawley, plasma, IV bolus (3 mg/kg), extrapolated value): 40500 ng/mL
AUC(0-t) [13, 16]: 18400 ng·h/mL
Cmax [13, 16]: 1060 ng/mL
Tmax [13, 16]: 3.67 h
Vss ([13]; IV bolus (3 mg/kg), 3 mg/kg): 1.32 L/kg
IV clearance ([13]; IV, in words): reasonable
F (%) oral bioavailability ([13]; PO (10 mg/kg) vs IV, 10 mg/kg): 21.4%
